Reference: patent publication US20030203857A1, “Remedies” (priority 2000, published 2003)
Where “and” joins values, the source holds several entries; their conditions need not be identical. Equal entries are not always repeated.

Legend:
[1] = tested on: HGF production in MRC-5 cells; assay: Enhancing activity for HGF production, MRC-5 cells, HGF ELISA of medium; assay type: cell-based, Human; details: 24 hours, control = 100%
Protocol: MRC-5 cells (CCL 171: manufactured by DAINIPPON PHARMACEUTICAL CO., LTD., code. 02-021) were suspended in a DME medium containing 10% fetal bovine serum so as to have a concentration of 5×10^4 cells/cm^2. The suspension was put in a 48-well cell culture plate, and the cells were cultured at 37° C. in the presence of 5% CO2 gas for 24 hours. After culturing, the medium was exchanged. Thereafter, the sample was added, and the cells were cultured for another 24 hours. Subsequently, the medium was collected, and the amount of HGF in the medium was assayed using Quantikine Human Hepatocyte Growth Factor (HGF) ELISA Kit (manufactured by Funakoshi, code. RS-0641-00). […] Here, the addition of the sample was carried out by previously preparing aqueous solutions of the samples at various concentrations, and adding a given amount of each solution to the medium so as to have the above-mentioned final concentration. As the control, that with addition of a given amount of distilled water alone (final concentration of the sample: 0 μM) was used. The amount of HGF production was expressed as the relative value (%) when the HGF concentration in the cell culture medium of the control was defined as 100%. All experiments were carried out twice, and an average value was taken.

[2] = tested on: NGF production in L-M cells; assay: Enhancing activity for NGF production, L-M cells, NGF enzyme immunoassay of medium; assay type: cell-based, murine; details: control = 100%
Protocol: L-M cells (ATCC CCL-1.2) from murine fibroblasts were suspended in an M199 medium (manufactured by ICN) containing 0.5% bactopeptone (manufactured by Gibco BRL) so as to have a concentration of 1.5×10^5 cells/ml. The suspension was put in a 96-well plate in an amount of 0.1 ml each well, and the cells were aseptically cultured. After culturing the cells for 3 days, the medium was removed therefrom, and exchanged with an M199 medium containing 0.5% bovine serum albumin (manufactured by Sigma). […] After the termination of the culture, the NGF concentration in the culture medium was determined by an enzyme immunoassay method (NGF Emax Immuno Assay System, manufactured by Promega). Incidentally, in the case where the final concentration of the iron-treated chlorogenic acid was 0 μM, a given amount of an aqueous solution obtained by an iron treatment in the absence of chlorogenic acid was added to the medium. In addition, for the purpose of comparison, the activity of the chlorogenic acid without the iron treatment was assayed in the same manner. As described above, that with addition of a given amount of distilled water alone (final concentration of chlorogenic acid without the iron treatment: 0 μM) was used as the control. The amount of NGF production was expressed as the relative value (%) when the NGF concentration in the cell culture medium of the control was defined as 100%. The experiment was carried out twice, and an average value was taken. The enhancing activity for NGF production of chlorogenic acid was enhanced by the iron treatment.

mouse = assay type: in vivo; details: orally, single dose of 1 g/1 kg

Row | Compound | Amount of HGF Production ([1]; 1 μM) | Amount of HGF Production ([1]; 10 μM) | Amount of HGF Production ([1]; 100 μM) | Death after single oral administration (mouse) | other results
1 | 3,5-dicaffeoylquinic acid | 142% | 206% | 290% |  | 
2 | CCOC(=O)/C=C/c1ccc(O)c(O)c1 [Caffeic Acid Ethyl Ester, caffeic acid ethyl ester] |  |  |  |  | Amount of NGF Production ([2]; 0.0625 mg/ml): 1279.1%
3 | COC(=O)/C=C/c1ccc(O)c(O)c1 [Caffeic Acid Methyl Ester, caffeic acid methyl ester] |  |  |  |  | Amount of NGF Production ([2]; 0.0625 mg/ml): 824.4%; Amount of NGF Production ([2]; 0.125 mg/ml): 889.6%
4 | O=C(O)/C=C/c1ccc(O)c(O)c1 [caffeic acid] | 85% | 117% | 196% | no cases of death | Amount of HGF Production ([1]; 1000 μM): 92%; Amount of NGF Production ([2]; 62.5 μM, 20 hours): 97.8%; Amount of NGF Production ([2]; 125 μM, 20 hours): 199.5%; Amount of NGF Production ([2]; 250 μM, 20 hours): 221.2% and 227.8%; Amount of NGF Production ([2]; 500 μM, 20 hours): 287.9%; Amount of NGF Production ([2]; 1000 μM, 20 hours): 269.3%
5 | O=C(/C=C/c1ccc(O)c(O)c1)O[C@@H]1C[C@](O)(C(=O)O)C[C@@H](O)[C@H]1O [chlorogenic acid] | 105% | 122% | 302% | no cases of death | Amount of HGF Production ([1]; 50 μM (as chlorogenic acid)): 148%; Amount of HGF Production ([1]; 500 μM): 479%; Amount of HGF Production ([1]; 1000 μM): 624%; Amount of NGF Production ([2]; 125 μM, 20 hours): 124.6%; Amount of NGF Production ([2]; 250 μM, 20 hours): 308.5% and 192.8%; Amount of NGF Production ([2]; 500 μM, 20 hours): 351.1% and 382.2% and 328.5% and 231.9%; Amount of NGF Production ([2]; 1000 μM, 20 hours): 256.2%
6 | O=C(/C=C/c1ccc(O)c(O)c1)O[C@H]1[C@H](O)C[C@](O)(C(=O)O)C[C@H]1O [cryptochlorogenic acid, 4-caffeoyl-quinic acid] |  |  |  | no cases of death | 
7 | O=C(O[C@@H]1Cc2c(O)cc(O)cc2O[C@@H]1c1cc(O)c(O)c(O)c1)c1cc(O)c(O)c(O)c1 [epigallocatechin gallate] | 175% | 160% |  | no cases of death | 
8 | O=C(O)c1cc(O)c(O)c(O)c1 [gallic acid] | 112% | 217% | 576% | no cases of death | 
9 | O=c1cc(-c2ccc(O)c(O)c2)oc2cc(O)c([C@@H]3O[C@H](CO)[C@@H](O)[C@H](O)[C@H]3O)c(O)c12 [isoorientin] |  |  |  | no cases of death | 
10 | COc1cc(O)c(CC=C(C)C)c2c1C(=O)CC(c1ccc(O)cc1)O2 (centres unmarked) [isoxanthohumol] |  |  |  |  | Amount of NGF Production ([2]; 50 μM, 20 hours): 110.7%; Amount of NGF Production ([2]; 100 μM, 20 hours): 121.4%; Amount of NGF Production ([2]; 200 μM, 20 hours): 198.0%
11 | O=c1c(O)c(-c2ccc(O)cc2)oc2cc(O)cc(O)c12 [kaemferol] |  |  |  | no cases of death | 
12 | O=c1c(O)c(-c2cc(O)c(O)c(O)c2)oc2cc(O)cc(O)c12 [myricetin] | 187% | 543% | 454% | no cases of death | 
13 | O=C(/C=C/c1ccc(O)c(O)c1)O[C@@H]1C[C@@](O)(C(=O)O)C[C@@H](O)[C@@H]1O [neochlorogenic acid, 5-caffeoyl-quinic acid] |  |  |  | no cases of death | 
14 | O=c1c(O)c(-c2ccc(O)c(O)c2)oc2cc(O)cc(O)c12 [quercetin] |  | 139% | 304% | no cases of death | 
15 | COc1cc2c(c(O)c1C(=O)/C=C/c1ccc(O)cc1)CC(O)C(C)(C)O2 (centres unmarked) [xanthohumol B] |  |  |  | no cases of death | 
16 | C=C(C)C(O)Cc1c(O)cc(OC)c(C(=O)/C=C/c2ccc(O)cc2)c1O (centres unmarked) [xanthohumol D] |  |  |  | no cases of death | 
